Results: patent publication US20080254152A1, “Methods for Reducing the Effects of Stress on Skin Condition” (priority 2003, published 2008)

Experiments:
[1] = test system: ICAM-1 expression in HUVECs; experiment: ICAM-1 expression in HUVECs pre-treated 5 days with dexamethasone, then oxidatively stressed with PMA (ELISA); assay type: cell-based, Human; details: chronic 1 μM glucocorticoid 5 days, then 1 μM PMA; HUVEC; FIG. 1
Protocol: (§1) An in vitro model has been developed to investigate the impact of chronic stress on the inflammatory status of endothelial cells. • a. Cells are grown in 6-well (9.5 cm^2) plates. • b. […] Tissue culture supernatant and cell pellets are harvested at timepoint T0. • d. The cells are oxidatively stressed with 1 μM Phorbol Myristate Acetate (PMA). • e. Tissue culture supernatant and cell pellets were harvested at 6, 24 and 48 hours (T6, T24 and T48, respectively) post-PMA treatment. • f. All tissue culture supernatant was assayed for Lactate Dehydrogenase (LDH), as a measure of cytotoxicity, and Interleukin-6 synthesis. • g. All cells were counted (Beckman Coulter Counter) and pelleted and cell lysate assayed for ICAM-1 expression (Intra Cellular Adhesion Molecule 1).
HUVEC cells (Human umbilical vein endothelial cells, TCS Biologicals) were cultured and passaged in EGM-2 (Endothelial growth medium, Biowhittaker) supplemented with heparin, VEGF (vascular endothelial growth factor), gentamicin sulphate, ascorbic acid, HEGF (Human endothelial growth factor), hydrocortisone, HFGF-B (Human fibroblast growth factor B), R3-IGF-1 (long R insulin-like growth factor 1) and FBS (foetal bovine serum).
Cells were routinely plated out in 6-well tissue culture dishes, at a seeding density of ˜5000 cells/cm^2 in 2 ml complete medium/well, 48 hours before starting the experiment, and incubated at 37° C. in 5% CO2.
Pre-treatment and test solutions were prepared in EGM-2 containing all supplements except hydrocortisone.
Following this, the cells were oxidatively stressed for 24 hours with 1 μM PMA (Sigma P8139).
Receptor antagonists were added to the cells during the pre-treatment period. These included the Glucocorticoid Receptor Antagonist; 2 μM Mifepristone (Sigma M8046) and two CRH receptor antagonists; 200 nM Astressin (Sigma A4933) and 200 nM α-helical CRF peptide antagonist (Sigma C2917).
Any change in cell morphology was noted before the cells were harvested. Both the tissue culture supernatant and the endothelial cells were harvested after the five-day pre-treatment period (T0), at 6 hours and 24 hours after addition of PMA (T6 and T24) and at 24 hours after removal of the PMA (T48). All tissue culture supernatants were stored at −20° C.
All cell pellets were lysed on ice for 30 minutes in 1 ml cell lysis buffer per 2.5×10^6 cells. The lysis buffer contained 1% NP-40, 0.1% sodium deoxycholate, 0.1% SDS, 6 mM sodium chloride and 0.05M Tris at pH 7.6. Protease inhibitor cocktail ([…]; Sigma P8340) was added prior to use at a level of 10 μl per ml of lysis buffer. The partially lysed cell pellets were completely homogenised with a pellet pestle and unwanted cell debris removed by centrifugation for 20 minutes at 20,000 g at 4° C. The clarified cell lysate was frozen at −80° C. until needed.
The total protein concentration of each cell lysate was measured using the Pierce BCA protein assay kit. A set of eight standard solutions ranging from 0 to 1200 μg/ml protein was prepared from the supplied 2 mg/ml BSA stock solution. 10 μl of standard or cell lysate was added to duplicate wells of a flat-bottomed, 96-well microtitre plate. The reagent solution was prepared according to the kit instructions from 50 parts reagent A and 1 part reagent B. 200 μl of the final reagent was added to each well of the microtitre plate. The plate was mixed, covered and incubated at 37° C. for 30 minutes and absorbance read at 562 nm.
ICAM-1 protein in each cell lysate was estimated using the Human sICAM-1 DuoSet ELISA kit (R&D Systems DY720) according to the manufacturer's instructions.
The capture antibody was diluted to a final concentration of 4 μg/ml in PBS and 100 μl was used to coat each well of a 96-well microtitre plate overnight at room temperature. The plate was then washed three times with wash buffer (0.05% Tween 20 in PBS).

[2] = test system: IL-6 expression by Human Umbilical Vein Endothelial Cells; experiment: IL-6 ELISA of HUVEC tissue culture supernatant; assay type: cell-based; details: without PMA
Protocol: as §1

[3] = test system: MMP-1 expression in human adult-derived dermal fibroblast cells; experiment: Active MMP-1 in adult-derived human dermal fibroblasts after chronic dexamethasone and PMA; assay type: cell-based; details: for Suppression of MMP-1 synthesis vs control, untreated cells: chronic dexamethasone then 1 μM PMA, adult fibroblasts
Protocol: In this study, to understand better the effect of chronic stress on dermal matrix remodelling in the skin, we have therefore measured changes in markers of dermal matrix degradation (MMP-1) and dermal matrix synthesis (Procollagen I) in chronically glucocorticoid-treated primary human dermal fibroblasts, following acute stress with PMA. The experimental approach is similar to that described in example 1 except that the cells tested are dermal fibroblasts and cells are assayed for expression of procollagen-1, MMP-1 and MMP-9 expression.
Primary human dermal fibroblast cells were cultured and passaged in DMEM (Gibco) supplemented with 10% FBS (foetal bovine serum). Cells were routinely plated out in 6-well tissue culture dishes, at a seeding density of ˜5000 cells/cm^2 in 2 ml complete medium/well for 24 hours, and incubated at 37° C. in 5% CO2. Media was removed and cells grown in DMEM & 1% FBS, 24 hours prior to treatments.
Pre-treatment and test solutions were prepared in DMEM containing low serum (1% FBS). […] Following this, the cells were oxidatively stressed for 24 hours with 1 μM PMA (Sigma P8139).
MMP-1 and MMP-9 protein in each cell supernatant was estimated using the Human active MMP-1 and MMP-9 Fluorokine enzyme kit (R&D Systems F1M00 and F9M00, respectively), according to the manufacturer's instructions.
Six MMP-1 and MMP-9 standards were prepared in calibrator diluent at concentrations ranging from 0.39 to 12.5 ng/ml and 0.25 to 16 ng/ml, respectively. 100 μl of assay diluent and 150 μl of tissue culture supernatant or standard was added to duplicate wells. The plate was incubated at room temperature for 3 hours on a horizontal orbital plate shaker before being washed four times with wash buffer. 200 μl of APMA was added to each well and the plate incubated at 37° C. for 2 hours in a humidified environment and protected from the light. The plate was washed as before. Each well received 200 μl of substrate solution and the plate incubated at 37° C. for 17-20 hours in a humidified environment and protected from the light. The relative fluorescence unit (RFU) of each well was determined using a fluorescence plate set with 1×20 mS integration time, plate speed ˜6; excitation wavelength set to 320 nm and emission wavelength set to 405 nm.
A standard curve was plotted of mean RFU versus MMP-1 and MMP-9 concentration (respectively), and the line of best fit calculated by regression analysis. The unknown concentration of either active MMP-1 or MMP-9 protein in all of the samples was estimated from this.

C[C@@H]1C[C@H]2[C@@H]3CCC4=CC(=O)C=C[C@]4(C)[C@@]3(F)[C@@H](O)C[C@]2(C)[C@@]1(O)C(=O)CO [Dexamethasone]
Induction of ICAM-1 synthesis after PMA, glucocorticoid pre-treated vs not pre-treated cells [1]: significantly greater
IL-6 secretion with glucocorticoid alone [2]: did not cause increased secretion of IL-6
Level of active MMP-1 ([3]; GC-treated adult fibroblasts): ~25 ng/mL
Suppression of MMP-1 synthesis vs control, untreated cells ([3]; T6): ~85%
Suppression of MMP-1 synthesis vs control, untreated cells ([3]; T24): 10%
Suppression of MMP-1 synthesis vs control, untreated cells ([3]; T48): 80%
